Tested on: 242566-281-R-J2-PDC complex spheroid viability
Test: Anticancer human tumor 242566-281-R-J2-PDC patient-derived pancreatic carcinoma cell line growth inhibition [RAS]
Conditions: for IC50: curve of first compound; for viability, T/C: stronger effect = lower value; active = viability on the fitted dose curve at most 10% of control; inactive = the rest
Summary of the method: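 Tumour cells grown as complex spheroids with HUVEC endothelial cells and mesenchymal stem cells, treated with RAS pathway inhibitor combinations. Each agent spans half-log steps from near clinical Cmax, or 10 microM where Cmax is unknown.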

[1] = second compound 0.00316 µM, first compound 0.0316 µM
[2] = second compound 0.00316 µM, first compound 0.1 µM
[3] = second compound 0.00316 µM, first compound 0.316 µM
[4] = second compound 0.00316 µM, first compound 1 µM
[5] = second compound 0.00316 µM, first compound 3.16 µM
[6] = second compound 0.00316 µM, first compound 10 µM
[7] = second compound 0.01 µM, first compound 0.0316 µM
[8] = second compound 0.01 µM, first compound 0.1 µM
[9] = second compound 0.01 µM, first compound 0.316 µM
[10] = second compound 0.01 µM, first compound 1 µM
[11] = second compound 0.01 µM, first compound 3.16 µM
[12] = second compound 0.01 µM, first compound 10 µM
[13] = second compound 0.0316 µM, first compound 0.0316 µM
[14] = second compound 0.0316 µM, first compound 0.1 µM
[15] = second compound 0.0316 µM, first compound 0.316 µM
[16] = second compound 0.0316 µM, first compound 1 µM
[17] = second compound 0.0316 µM, first compound 3.16 µM
[18] = second compound 0.0316 µM, first compound 10 µM
[19] = second compound 0.1 µM, first compound 0.0316 µM
[20] = second compound 0.1 µM, first compound 0.1 µM
[21] = second compound 0.1 µM, first compound 0.316 µM
[22] = second compound 0.1 µM, first compound 1 µM
[23] = second compound 0.1 µM, first compound 3.16 µM
[24] = second compound 0.1 µM, first compound 10 µM
[25] = second compound 0.316 µM, first compound 0.0316 µM
[26] = second compound 0.316 µM, first compound 0.1 µM
[27] = second compound 0.316 µM, first compound 0.316 µM
[28] = second compound 0.316 µM, first compound 1 µM
[29] = second compound 0.316 µM, first compound 3.16 µM
[30] = second compound 0.316 µM, first compound 10 µM
[31] = second compound 1 µM, first compound 0.0316 µM
[32] = second compound 1 µM, first compound 0.1 µM
[33] = second compound 1 µM, first compound 0.316 µM
[34] = second compound 1 µM, first compound 1 µM
[35] = second compound 1 µM, first compound 3.16 µM
[36] = second compound 1 µM, first compound 10 µM
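Note: spheroids exposed to compound for 7 days before readout.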
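Throughout, for viability, T/C: 100% = DMSO vehicle control wells.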

CC1(O)CCCC1n1c(=O)c(C(F)F)cc2cnc(NC3CCN(S(C)(=O)=O)CC3)nc21 (stereo unspecified) + C=CC(=O)N1CCN(c2nc(OCC3CCCN3C)nc3c(F)c(-c4nc(N)cc(C)c4C(F)(F)F)c(Cl)cc23)C(C)C1
> 10 µM: IC50 (second compound 0.00316 µM) | IC50 (second compound 0.01 µM) | IC50 (second compound 0.0316 µM) | IC50 (second compound 0.1 µM) | IC50 (second compound 0.316 µM)
9.01 µM: IC50 (second compound 1 µM)
inactive: viability, T/C [1] 86.6% | viability, T/C [2] 108% | viability, T/C [3] 83.9% | viability, T/C [4] 108% | viability, T/C [5] 112% | viability, T/C [6] 72.7% | viability, T/C [7] 99% | viability, T/C [8] 113% | viability, T/C [9] 106% | viability, T/C [10] 99.5% | viability, T/C [11] 123% | viability, T/C [12] 68.9% | viability, T/C [13] 94.7% | viability, T/C [14] 106% | viability, T/C [15] 108% | viability, T/C [16] 132% | viability, T/C [17] 115% | viability, T/C [18] 66.6% | viability, T/C [19] 96.3% | viability, T/C [20] 104% | viability, T/C [21] 97.9% | viability, T/C [22] 106% | viability, T/C [23] 112% | viability, T/C [24] 68.2% | viability, T/C [25] 96.5% | viability, T/C [26] 108% | viability, T/C [27] 89.5% | viability, T/C [28] 116% | viability, T/C [29] 139% | viability, T/C [30] 64.5% | viability, T/C [31] 92.1% | viability, T/C [32] 126% | viability, T/C [33] 110% | viability, T/C [34] 98.1% | viability, T/C [35] 112% | viability, T/C [36] 44.2%

CCN1CCN(Cc2ccc(Nc3ncc(F)c(-c4cc(F)c5nc(C)n(C(C)C)c5c4)n3)nc2)CC1 + C=CC(=O)N1CCN(c2nc(OCC3CCCN3C)nc3c(F)c(-c4nc(N)cc(C)c4C(F)(F)F)c(Cl)cc23)C(C)C1
> 1 µM: IC50 (second compound 0.00316 µM) | IC50 (second compound 0.01 µM) | IC50 (second compound 0.0316 µM) | IC50 (second compound 0.1 µM) | IC50 (second compound 0.316 µM) | IC50 (second compound 1 µM)
inactive: viability, T/C (second compound 0.00316 µM, first compound 0.00316 µM) 121% | viability, T/C (second compound 0.00316 µM, first compound 0.01 µM) 135% | viability, T/C [1] 100% | viability, T/C [2] 90.5% | viability, T/C [3] 123% | viability, T/C [4] 167% | viability, T/C (second compound 0.01 µM, first compound 0.00316 µM) 95.2% | viability, T/C (second compound 0.01 µM, first compound 0.01 µM) 160% | viability, T/C [7] 101% | viability, T/C [8] 88.8% | viability, T/C [9] 127% | viability, T/C [10] 154% | viability, T/C (second compound 0.0316 µM, first compound 0.00316 µM) 104% | viability, T/C (second compound 0.0316 µM, first compound 0.01 µM) 120% | viability, T/C [13] 102% | viability, T/C [14] 108% | viability, T/C [15] 131% | viability, T/C [16] 169% | viability, T/C (second compound 0.1 µM, first compound 0.00316 µM) 115% | viability, T/C (second compound 0.1 µM, first compound 0.01 µM) 136% | viability, T/C [19] 97.9% | viability, T/C [20] 89.3% | viability, T/C [21] 130% | viability, T/C [22] 167% | viability, T/C (second compound 0.316 µM, first compound 0.00316 µM) 98.1% | viability, T/C (second compound 0.316 µM, first compound 0.01 µM) 134% | viability, T/C [25] 94.5% | viability, T/C [26] 99.9% | viability, T/C [27] 154% | viability, T/C [28] 154% | viability, T/C (second compound 1 µM, first compound 0.00316 µM) 94.2% | viability, T/C (second compound 1 µM, first compound 0.01 µM) 136% | viability, T/C [31] 94.9% | viability, T/C [32] 96.8% | viability, T/C [33] 138% | viability, T/C [34] 160%

C[C@@H](NC(=O)c1ncnc(N)c1Cl)c1ncc(C(=O)Nc2cc(C(F)(F)F)c(Cl)cn2)s1 + C=CC(=O)N1CCN(c2nc(OCC3CCCN3C)nc3c(F)c(-c4nc(N)cc(C)c4C(F)(F)F)c(Cl)cc23)C(C)C1
> 10 µM: IC50 (second compound 0.00316 µM) | IC50 (second compound 0.01 µM) | IC50 (second compound 0.0316 µM) | IC50 (second compound 0.1 µM) | IC50 (second compound 0.316 µM) | IC50 (second compound 1 µM)
inactive: viability, T/C [1] 111% | viability, T/C [2] 142% | viability, T/C [3] 111% | viability, T/C [4] 106% | viability, T/C [5] 110% | viability, T/C [6] 126% | viability, T/C [7] 112% | viability, T/C [8] 148% | viability, T/C [9] 113% | viability, T/C [10] 105% | viability, T/C [11] 105% | viability, T/C [12] 122% | viability, T/C [13] 125% | viability, T/C [14] 124% | viability, T/C [15] 115% | viability, T/C [16] 123% | viability, T/C [17] 97.1% | viability, T/C [18] 118% | viability, T/C [19] 122% | viability, T/C [20] 153% | viability, T/C [21] 107% | viability, T/C [22] 113% | viability, T/C [23] 106% | viability, T/C [24] 109% | viability, T/C [25] 107% | viability, T/C [26] 124% | viability, T/C [27] 122% | viability, T/C [28] 112% | viability, T/C [29] 110% | viability, T/C [30] 124% | viability, T/C [31] 111% | viability, T/C [32] 124% | viability, T/C [33] 119% | viability, T/C [34] 103% | viability, T/C [35] 117% | viability, T/C [36] 106%
